Tests used:
Format in all cases: in vivo
[1] = tested on: Alopecurus myosuroides (ALOMY); assay: Pre-emergence biological efficacy, glasshouse pot test; conditions: 312 h, pre-emergence, rate 1,000 g/ha, evaluated after 13 days (100=total damage to plant; 0=no damage), read-out: Percentage damage caused to weed species, ALOMY
In short: (§1)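 Glasshouse pot test: spray on soil one day after sowing, 1000 or 250 g/ha. Conditions 24/16 °C day/night, 14 h light, 65% humidity. Plant damage scored 0–100 at 13 days.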

[2] = tested on: Amaranthus retoflexus (AMARE); assay: as above; conditions: Amaranthus retroflexus, 312 h; pre-emergence, rate 1,000 g/ha, evaluated after 13 days (100=total damage to plant; 0=no damage); read-out: Percentage damage caused to weed species, AMARE
In short: as §1

[3] = tested on: Echinochloa crus-galli (ECHCG); assay: as above; conditions: 312 h, pre-emergence, rate 1,000 g/ha, evaluated after 13 days (100=total damage to plant; 0=no damage), read-out: Percentage damage caused to weed species, ECHCG
In short: as §1

[4] = tested on: Ipomea hederaceae (IPOHE); assay: as above; conditions: Ipomoea hederacea, 312 h; pre-emergence, rate 1,000 g/ha, evaluated after 13 days (100=total damage to plant; 0=no damage); read-out: Percentage damage caused to weed species, IPOHE
In short: as §1

[5] = tested on: Setaria faberi (SETFA); assay: as above; conditions: 312 h, pre-emergence, rate 1,000 g/ha, evaluated after 13 days (100=total damage to plant; 0=no damage), read-out: Percentage damage caused to weed species, SETFA
In short: as §1

[6] = tested on: Solanum nigrum (SOLNI); assay: as above; conditions: 312 h, pre-emergence, rate 1,000 g/ha, evaluated after 13 days (100=total damage to plant; 0=no damage), read-out: Percentage damage caused to weed species, SOLNI
In short: as §1

[7] = tested on: Alopecurus myosuroides (ALOMY); assay: Post-emergence biological efficacy, glasshouse pot test; conditions: 312 h, Rate 1,000 g/ha, post-emergence spray, evaluated after 13 days (100=total damage to plant; 0=no damage to plant), read-out: Percentage damage caused to weed species, post-emergence, ALOMY
In short: (§2)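 Pot-grown weeds were sprayed 8 days after sowing with test compound in acetone/water (50:50) with 0.5% Tween 20 at 1000 or 250 g/ha. Glasshouse at 24/16° C day/night, 14 h light, 65% humidity. Damage scored 0-100 (100 = total damage) after 13 days.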

[8] = tested on: Amaranthus retoflexus (AMARE); assay: as above; conditions: Amaranthus retroflexus, 312 h; Rate 1,000 g/ha; post-emergence spray; evaluated after 13 days (100=total damage to plant; 0=no damage to plant); read-out: Percentage damage caused to weed species, post-emergence, AMARE
In short: as §2

[9] = tested on: Echinochloa crus-galli (ECHCG); assay: as above; conditions: 312 h, Rate 1,000 g/ha, post-emergence spray, evaluated after 13 days (100=total damage to plant; 0=no damage to plant), read-out: Percentage damage caused to weed species, post-emergence, ECHCG
In short: as §2

[10] = tested on: Ipomea hederaceae (IPOHE); assay: as above; conditions: Ipomoea hederacea, 312 h; Rate 1,000 g/ha; post-emergence spray; evaluated after 13 days (100=total damage to plant; 0=no damage to plant); read-out: Percentage damage caused to weed species, post-emergence, IPOHE
In short: as §2

[11] = tested on: Setaria faberi (SETFA); assay: as above; conditions: 312 h, Rate 1,000 g/ha, post-emergence spray, evaluated after 13 days (100=total damage to plant; 0=no damage to plant), read-out: Percentage damage caused to weed species, post-emergence, SETFA
In short: as §2

[12] = tested on: Solanum nigrum (SOLNI); assay: as above; conditions: 312 h, Rate 1,000 g/ha, post-emergence spray, evaluated after 13 days (100=total damage to plant; 0=no damage to plant), read-out: Percentage damage caused to weed species, post-emergence, SOLNI
In short: as §2

SMILES	pest or weed control at 1000 g/ha [1]	pest or weed control at 1000 g/ha [2]	pest or weed control at 1000 g/ha [3]	pest or weed control at 1000 g/ha [4]	pest or weed control at 1000 g/ha [5]	pest or weed control at 1000 g/ha [6]	pest or weed control at 1000 g/ha [7]	pest or weed control at 1000 g/ha [8]	pest or weed control at 1000 g/ha [9]	pest or weed control at 1000 g/ha [10]	pest or weed control at 1000 g/ha [11]	pest or weed control at 1000 g/ha [12]
COC(=O)c1nc(C2CC2)nc(N(CCC#N)Cc2ccco2)c1Cl [Compound 161-125, 5-Chloro-4-[N-(2-cyanoethyl)-N-furan-2-ylmethyl-amino]-2-cyclo-propyl-6-methoxy-carbonylpyrimidine]	20%	100%	20%	80%	0%	30%	0%	80%	10%	40%	40%	50%
CCOC(=O)CCN(Cc1ccccc1)c1nc(C2CC2)nc(C(=O)OC)c1Cl [Compound 162-60, 5-Chloro-2-cyclopropyl-4-[N-(2-ethoxycarbonyl-ethyl)-N-phenylmethyl-amino]-6-methoxycarbonyl-pyrimidine]	10%	40%	20%	70%	0%	20%	10%	80%	0%	70%	0%	60%
C=Cc1ccc(-c2c(NCc3ccco3)nc(C3CC3)nc2C(=O)OC)cc1 [Compound 187-125, 2-Cyclopropyl-5-(4-ethenylphenyl)-4-(furan-2-ylmethylamino)-6-methoxycarbonyl-pyrimidine]	0%	0%	0%	0%	0%	0%	0%	70%	0%	40%	0%	50%
CC(C)OC(=O)c1nc(C2CC2)nc(NCc2ccco2)c1Cl [Compound 197-125, 5-Chloro-2-cyclo-propyl-4-(2-furanylmethyl-amino)-6-iso-propoxycarbonyl-pyrimidine]	50%	100%	70%	100%	70%	90%	50%	100%	70%	100%	100%	100%
CCCOC(=O)c1nc(C2CC2)nc(NCc2ccco2)c1Cl [Compound 198-125, 5-chloro-2-cyclopropyl-4-[(furan-2-ylmethyl)-amino]-6-^npropoxycarbonylpyrimidine]	40%	100%	80%	100%	80%	100%	40%	100%	80%	100%	90%	90%
CC(C)COC(=O)c1nc(C2CC2)nc(NCc2ccco2)c1Cl [Compound 199-125, 5-Chloro-2-cyclopropyl-4-(2-furanylmethyl-amino)-6-iso-butoxycarbonyl-pyrimidine]	40%	100%	50%	100%	80%	100%	20%	100%	70%	100%	70%	80%
O=C(OCc1ccccc1)c1nc(C2CC2)nc(NCc2ccco2)c1Cl [Compound 200-125]	50%	100%	70%	100%	70%	100%	30%	100%	70%	90%	80%	90%
COC(=O)c1nc(Cl)nc(NC2CC2)c1Cl [Compound 207-30, 4-Cyclopropylamino-2,5-dichloro-6-methoxycarbonyl-pyrimidine]	0%	0%	0%	0%	0%	0%	10%	0%	0%	20%	0%	10%
COC(=O)c1nc(Cl)nc(NCC2CC2)c1Cl [Compound 207-31, 4-Cyclopropylmethyl-amino-2,5-dichloro-6-methoxycarbonyl-pyrimidine]	0%	20%	0%	0%	0%	10%	10%	50%	0%	10%	40%	60%
COC(=O)c1nc(Cl)nc(NCc2ccccc2)c1Cl [Compound 207-35, 2,5-Dichloro-6-methoxycarbonyl-4-phenylmethylamino-pyrimidine]	10%	30%	10%	10%	0%	0%	30%	50%	20%	10%	30%	60%
COC(=O)c1nc(Cl)nc(NCc2ccc(C)o2)c1Cl [Compound 207-50, 2,5-Dichloro-6-methoxycarbonyl-4-(5-methylfuran-2-ylmethylamino)-pyrimidine]	0%	60%	0%	40%	0%	80%	0%	40%	0%	70%	0%	80%

Reference: patent US20110086759A1, “CHEMICAL COMPOUNDS” (SYNGENTA CROP PROTECTION, INC., priority 2007, published 2011)
